Test systems include MALME-3M melanoma; OVCAR-5 ovarian; SW-620 colon; HCT-116 colon; NCI-H226 lung; ACHN renal; SK-MEL-28 melanoma; SF-295 CNS; NCI-H23 lung.
Holding throughout (experiment): inhibition of tumour cell growth, NCI panel, 48 h

We go through 14 compounds from PubChem BioAssay (NCI).

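Growth conditions: 96-well plates. Treatment: test compound, 48 hours, 5 concentrations. Analysis: linear interpolation between bracketing concentrations; unreached endpoints set to highest concentration. Abbreviation: GI50, concentration required for 50% inhibition of growth. TGI: concentration producing complete growth inhibition.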

In the case of `NC(=O)c1ccccc1NC(=O)C(=O)C(C(=O)c1ccc2ccccc2c1)C1OC(=O)c2ccccc21` (configuration not stated), the TGI in the assay on MALME-3M melanoma was 26.3 µM; in the assay on OVCAR-5 ovarian, 67.1 µM; with SW-620 colon, 27.9 µM; with HCT-116 colon, 23 µM; with NCI-H226 lung, 9.88 µM; in the assay with ACHN renal, above 100 µM.
For the compound `COC(=O)CCC(NC(=S)N/N=C(\C)c1ccccn1)C(=O)OC` (configuration not stated), the TGI in the assay with MALME-3M melanoma, with OVCAR-5 ovarian, in the assay with SK-MEL-28 melanoma, in the assay with SF-295 CNS, in the assay with NCI-H23 lung and with SW-620 colon was above 100 µM in each case. Also, the TGI in the assay with HCT-116 colon, with NCI-H226 lung and with ACHN renal was above 100 µM in each case.
For the compound `O=C(NCCCN1CCN(CCCNC(=O)c2cnc3ccccc3n2)CC1)c1cnc2ccccc2n1`, the TGI in the assay with MALME-3M melanoma, in the assay on SK-MEL-28 melanoma, in the assay with SF-295 CNS, with SW-620 colon, in the assay with HCT-116 colon and with NCI-H226 lung was above 100 µM throughout. In addition, the TGI in the assay on ACHN renal was above 100 µM.
In the case of `COc1ccc(/C=C/c2cc(OC)c(O[Si](C)(C)C(C)(C)C)c(OC)c2)cc1`, the TGI in the assay with MALME-3M melanoma is above 100 µM; with OVCAR-5 ovarian, above 100 µM; in the assay with SK-MEL-28 melanoma, 86.6 µM; in the assay on NCI-H23 lung it was above 100 µM; in the assay on SW-620 colon, above 100 µM; in the assay on HCT-116 colon it was above 100 µM. In addition, the TGI with NCI-H226 lung and with ACHN renal was above 100 µM in each case.
Turning to `C/C(=N\NC(=O)CC(=O)Nc1ccc(C)cc1)c1cc2ccccc2oc1=O`, the TGI in the assay on MALME-3M melanoma, with SK-MEL-28 melanoma, in the assay with SF-295 CNS, in the assay with NCI-H23 lung, with SW-620 colon and in the assay with HCT-116 colon was above 100 µM in each case. Moreover, the TGI in the assay on NCI-H226 lung and in the assay with ACHN renal was above 100 µM throughout.
With `COc1ccc(/C=C/C(=O)c2sc(N)nc2C)cc1`, the TGI in the assay on MALME-3M melanoma, in the assay on OVCAR-5 ovarian, in the assay on SK-MEL-28 melanoma, with SF-295 CNS, in the assay with NCI-H23 lung and in the assay on SW-620 colon was above 100 µM throughout.
Take `Cn1cc(-c2csc(-c3c[nH]c4ncccc34)n2)c2cc(Br)cnc21`: the GI50 was 3.01 µM with MALME-3M melanoma; above 100 µM with OVCAR-5 ovarian; 3.01 µM in the assay with SF-295 CNS; 2.8 µM in the assay on NCI-H23 lung; 4.46 µM in the assay with SW-620 colon; 2.91 µM with HCT-116 colon. The GI50 in the assay with NCI-H226 lung is 1.97 µM; in the assay with ACHN renal, 2.35 µM. Further, the TGI in the assay with MALME-3M melanoma was above 100 µM; with OVCAR-5 ovarian it was above 100 µM; in the assay on SF-295 CNS, 18.8 µM; in the assay with NCI-H23 lung it was above 100 µM; in the assay with SW-620 colon, above 100 µM; in the assay on HCT-116 colon, above 100 µM. In addition, the TGI in the assay with NCI-H226 lung and with ACHN renal was above 100 µM each time.
As to `Nc1nnc2nc(CC(=O)/C=C/c3ccccc3)c(=O)[nH]n12`, the TGI with MALME-3M melanoma, in the assay with OVCAR-5 ovarian, in the assay on SK-MEL-28 melanoma, in the assay on SF-295 CNS, in the assay with NCI-H23 lung and in the assay with SW-620 colon was above 100 µM throughout. Moreover, the TGI in the assay with HCT-116 colon, with NCI-H226 lung and with ACHN renal was above 100 µM in each case.
For `NC(=S)N/N=C(/CC(=O)c1ccc([N+](=O)[O-])cc1)C(=O)Nc1ncc([N+](=O)[O-])s1`, the TGI with MALME-3M melanoma, with OVCAR-5 ovarian, in the assay on SK-MEL-28 melanoma, in the assay with SF-295 CNS, in the assay with NCI-H23 lung and in the assay on SW-620 colon was above 100 µM throughout. Also, the TGI in the assay with HCT-116 colon, in the assay on NCI-H226 lung and with ACHN renal was above 100 µM in each case.
On to `O=C(Oc1cccnc1)c1ccccc1Nc1ccnc(C(F)(F)F)c1`, for which the GI50 with MALME-3M melanoma was 33.1 µM; with OVCAR-5 ovarian, 0.63 µM; with SK-MEL-28 melanoma, 0.483 µM; in the assay with SF-295 CNS it was 0.257 µM; in the assay with NCI-H23 lung it was 0.049 µM; in the assay with SW-620 colon, 0.0498 µM. Besides, the GI50 in the assay on HCT-116 colon is 0.0342 µM; in the assay with NCI-H226 lung, 0.552 µM; with ACHN renal it was 0.353 µM. For the same compound, the TGI is above 100 µM with MALME-3M melanoma; above 95.9 µM in the assay on OVCAR-5 ovarian; above 60.1 µM with SK-MEL-28 melanoma; 0.707 µM in the assay on SF-295 CNS; 1.83 µM with NCI-H23 lung; above 100 µM with SW-620 colon. In addition, the TGI was 29.3 µM in the assay on NCI-H226 lung and above 74.6 µM with ACHN renal.
With `CN(C)CCNC(=O)c1cccc2nc3ccc4ccccc4c3nc12`, the TGI with OVCAR-5 ovarian came out at 0.55 µM; in the assay on SK-MEL-28 melanoma it was 1.05 µM; with SF-295 CNS, 0.53 µM; with NCI-H23 lung, 0.221 µM; with SW-620 colon, 0.313 µM; in the assay on HCT-116 colon, 0.205 µM. In the assay with NCI-H226 lung, this compound displayed a TGI of 0.513 µM.
Consider `O=C(CC(=O)N1N=C(n2ccc3ccccc32)CC1c1ccccc1)Nc1cccc(Cl)c1` (configuration not stated), for which the TGI with MALME-3M melanoma, in the assay with OVCAR-5 ovarian, in the assay on SK-MEL-28 melanoma, in the assay with SF-295 CNS, in the assay on NCI-H23 lung and in the assay with SW-620 colon was above 100 µM each time. The TGI in the assay on HCT-116 colon and in the assay on ACHN renal was above 100 µM each time.
As for `CC(=O)CC(=O)CCCC(=O)Nc1ccc(Cl)cc1C`, the TGI in the assay on MALME-3M melanoma, with OVCAR-5 ovarian, in the assay on SF-295 CNS, in the assay with NCI-H23 lung, with SW-620 colon and in the assay with HCT-116 colon was above 100 µM in each case. Further, the TGI with NCI-H226 lung and with ACHN renal was above 100 µM in each case.
Consider `C/C(CN1C(=O)c2ccccc2C1=O)=N\NS(=O)(=O)c1ccccc1`, for which the TGI in the assay on MALME-3M melanoma, in the assay on OVCAR-5 ovarian, in the assay with SK-MEL-28 melanoma, in the assay with SF-295 CNS, in the assay with NCI-H23 lung and in the assay with SW-620 colon was above 100 µM in each case. The TGI with HCT-116 colon, with NCI-H226 lung and in the assay on ACHN renal was above 100 µM each time.
